Reference: publication PMC7997640, “Potential anti-COVID-19 agents, cepharanthine and nelfinavir, and their usage for combination treatment” (iScience, 2021)
Read-outs that look alike come from different tables or passages of the source.

What was measured:
SARS-CoV-2 [1] = experiment: Chemical screening of 306 approved drugs by cytopathic effect assay; assay type: cell-based
SARS-CoV-2 [2] = assay type: cell-based; details: VeroE6/TMPRSS2, 48 hr
SARS-CoV-2 [3] = assay type: cell-based
SARS-CoV-2 [4] = system: SARS-CoV-2
in vitro = details: African green monkey
SARS-CoV-2 [5] = experiment: microbe, parasite or virus in culture; details: for IC90: read-out: SARS-CoV-2 RNA IC90
SARS-CoV-2 [6] = experiment: Virus-cell binding assay at 4°C; assay type: cell-based
SARS-CoV-2 [7] = assay type: cell-based; remark: listed apart in the source
SARS-CoV-2 [8] = experiment: Viral N protein immunofluorescence in Calu-3 cells; assay type: cell-based
SARS-CoV-2 main protease = SARS-CoV-2 main protease (Severe acute respiratory syndrome coronavirus 2, UniProt P0DTD1); experiment: biochemical
SARS-CoV-2 [9] = experiment: microbe, parasite or virus in culture; assay type: cell-based
[10] = expected in human lung
[11] = patients, 500 mg NFV orally; ref Markowitz et al., 1998; read-out: serum Cmax; cited from earlier work
SARS-CoV = details: ref Liu et al., 2005, Wu et al., 2004, Yamamoto et al.; cited from earlier work
clinical = details: human, po, 500 mg
[12] = VeroE6/TMPRSS2, 24 hr, LPV 16 μM, CLQ 16 μM, RDV 20 μM, CEP 8 μM, NFV 4 μM
[13] = Table S1, Single-drug treatment
[14] = Severe acute respiratory syndrome coronavirus 2, VeroE6/TMPRSS2, 24 h, read-out: SARS-CoV-2 RNA IC50
[15] = Severe acute respiratory syndrome coronavirus 2, VeroE6/TMPRSS2, 24 h
[16] = Severe acute respiratory syndrome coronavirus 2, read-out: IC50 (Hill function fit)
[17] = secreted viral RNA 24 hr, RDV 15 μM, CLQ 15 μM, CEP 8.2 μM, NFV 4 μM

Compound	screening outcome (hit = cell survival more than 20-fold of the control) (SARS-CoV-2 [1])	virus-induced cytopathicity (SARS-CoV-2 [2])	N protein expression (SARS-CoV-2 [3]; [12])	antiviral activity on viral RNA (SARS-CoV-2 [4])	m, slope of the dose-response curve (Hill coefficient) (SARS-CoV-2 [4]; [13])	CC50 (in vitro)	IC50 (SARS-CoV-2 [5]; [14])	IC90 (SARS-CoV-2 [5]; [15])	IC50 (SARS-CoV-2 [5]; [16])	other results
CCOC(=O)O[C@]1(C(=O)OCCl)CC[C@H]2[C@@H]3CCC4=CC(=O)C=C[C@]4(C)[C@H]3[C@@H](O)C[C@@]21C [Loteprednol]	identified as hits									
CO[C@H]1C[C@@H]2CC[C@@H](C)[C@@](O)(O2)C(=O)C(=O)N2CCCC[C@H]2C(=O)O[C@H]([C@H](C)C[C@@H]2CC[C@@H](O)[C@H](OC)C2)CC(=O)[C@H](C)/C=C(\C)[C@@H](O)[C@@H](OC)C(=O)[C@H](C)C[C@H](C)/C=C/C=C/C=C/1C [Rapamycin]	identified as hits									
Cc1cccc(C)c1OCC(=O)N[C@@H](Cc1ccccc1)[C@@H](O)C[C@H](Cc1ccccc1)NC(=O)[C@H](C(C)C)N1CCCNC1=O [LPV, lopinavir]	identified as hits	reduced virus-induced cytopathicity	significantly reduced N protein expression	inhibited viral RNA	3.852	54.9 µM	3.07 µM	5.43 µM	3.61 µM	
heparin										SARS-CoV-2 binding to cells (cell-bound viral RNA) (SARS-CoV-2 [6]): significantly blocked SARS-CoV-2 particle attachment
CCN(CC)CCCC(C)Nc1ccnc2cc(Cl)ccc12 (stereo not drawn) [CLQ, chloroquine]		reduced virus-induced cytopathicity	significantly reduced N protein expression	inhibited viral RNA	1.984	> 64 µM	1.31 µM	3.97 µM	1.31 µM	step of life cycle inhibited (time-of-addition) (SARS-CoV-2 [7]; [17]): activity in the early stages of infection; SARS-CoV-2 binding to cells (cell-bound viral RNA) (SARS-CoV-2 [6]): negligible effect
CCC(CC)COC(=O)[C@H](C)N[P@](=O)(OC[C@H]1O[C@@](C#N)(c2ccc3c(N)ncnn23)[C@H](O)[C@@H]1O)Oc1ccccc1 [RDV, Remdesivir]				inhibited viral RNA		> 64 µM	1.58 µM	3.24 µM	1.58 µM	N protein expression (SARS-CoV-2 [3]): significantly reduced N protein expression; step of life cycle inhibited (time-of-addition) (SARS-CoV-2 [7]): negligible effect on virus entry; m, slope of the dose-response curve (Hill coefficient) (SARS-CoV-2 [4]): 3.048
Cc1c(O)cccc1C(=O)N[C@@H](CSc1ccccc1)[C@H](O)CN1C[C@H]2CCCC[C@H]2C[C@H]1C(=O)NC(C)(C)C [NFV, nelfinavir]	identified as hits	greatest anti-cytopathic activity	significantly reduced N protein expression		5.079	> 64 µM	0.77 µM	1.18 µM	0.765 µM	SARS-CoV-2 proliferation in Calu-3 cells (N protein) (SARS-CoV-2 [8]): inhibit SARS-CoV-2 proliferation; step of life cycle inhibited (time-of-addition) (SARS-CoV-2 [7]; [17]): clearly inhibited the post-entry process; IC50 (SARS-CoV-2 main protease): 37 µM; IC50 (SARS-CoV-2 [9]; [16]): 1.32 µM; m, slope of the dose-response curve (Hill coefficient) (SARS-CoV-2 [9]; Table S1, Combination treatment experiment): 4.043; viral RNA, % of untreated control (SARS-CoV-2 [9]; […], CEP 3.20 μM, NFV 2.24 μM, alone or combined): 5.8%; viral RNA levels, % of the untreated control infections (SARS-CoV-2 [4]): 0.001–0.01%; window (CC50/IC50) (SARS-CoV-2 [4]): > 70 fold; Degradation rate k [10]: 4.89 day⁻¹; Cmax [11]: 6.9 µM; replication of SARS-CoV (SARS-CoV): inhibit the replication; Cmax (clinical): 9.32 µM
NC(=O)c1nc(F)c[nH]c1=O [FPV, favipiravir]				negligible antiviral activity		> 64 µM	> 64 µM	> 64 µM		
